Where two headings read alike, the source gives them in different places.
How the values were obtained:
[1] = tested on: HBV surface antigen (HBsAg); assay: HBV in vitro test: HBV surface antigen in HepG2.2.15 culture supernatant by ELISA; type: cell-based, Hepatitis B Virus (HBV)
Procedure: (§1) The content of HBV DNA in HepG2. 2. 15 cell culture supernatant was detected by a real-time quantitative qPCR assay (real time-qPCR), and the content of HBV surface antigen was detected by enzyme-linked immunosorbent assay (ELISA), the compound EC50 value was used as an index to evaluate the inhibitory effect of the compound on HBV.
(§2) 3.1. HepG2. 2. 15 cells (4×10^4 cells/well) was plated into a 96-well plate and cultured overnight at 37° C., 5% CO2.
(§3) 3.2. The next day, the compound was diluted to 8 concentrations, 3-folds gradients dilution. The compound of different gradients were added into the culture well, double duplicated the wells. The final concentration of the DMSO was 0.5% in the culture solution. 10 μM ETV was used as 100% inhibition control; 0.5% of DMSO was used as 0% inhibition control.
(§4) 3.3. On the fifth day, the culture solution was replaced by fresh culture solution containing the compound.
(§5) 3.4. On the eighth day, the culture solution in the culture well was collected, and the content of hepatitis B virus S antigen was measured by ELISA with partial samples; and still partial samples was taken for extraction of DNA using high-throughput DNA purification kit (Qiagen-51162).
3.9. Content determination of hepatitis B virus S antigen measured by ELISA
50 μL sample and standard sample were taken and added into the reaction plate respectively, then 50 μL enzyme conjugate was added into each of the wells, shaked to mix well, then kept in warm bath at 37° C. for 60 min, and the plate was washed with cleansing solution for 5 times, 50 μL luminescent substrate was added into each wells, mixed well and reacted at r.t. for 10 min in the dark, the chemiluminescence intensity was finally detected with ELISA. The inhibition percentage of each compound was calculated by the following formula: inhibition rate (%)=(1−value in sample/DMSO control group value)×100%. The dose-response curves was fitted by GraphPad Prism software, and the 50% inhibited concentration EC50 value of the compound against HBV was calculated.

HBV DNA = assay: HBV in vitro test: HBV DNA in HepG2.2.15 culture supernatant by real time-qPCR; type: cell-based, Hepatitis B Virus (HBV)
Procedure: as §1, §2, §3, §4, §5
3.6. 15 μL reaction mixture was added into each well of the 96-well PCR plate, then in each well was added 10 μL sample DNA or standard product of HBV DNA.
3.7. The qPCR plate was sealed with optical sealing film, centrifuged at 1500 rpm for 2 minutes, and then the HBV copy number of each sample was quantitatively detected by fluorescence quantitative qPCR. The operation procedure of qPCR is as follows
Calculation of the Inhibition Percentage % Inh.=(1−value in the sample/DMSO control group value)×100%.
The dose-response curves was fitted by GraphPad Prism software, and the 50% inhibited concentration EC50 value of the compound against HBV was calculated.

[2] = Hepatitis B virus, HepG2.2.15, read-out: HBsAg experimental results EC50
[3] = Hepatitis B virus, HepG2.2.15, HepG2. 2. 15 cell culture supernatant, collected on the eighth day, real time-qPCR, read-out: HBV-DNA experimental results EC50
[4] = Hepatitis B virus, HepG2.2.15, read-out: HBV-DNA experimental results EC50

Structure (SMILES) | EC50 [1, 2] | EC50 (HBV DNA; [3]) | EC50 (HBV DNA; [4]) | EC50 ([1]; HepG2. 2. 15 cell culture supernatant, collected on the eighth day, ELISA, read-out: HBsAg experimental results EC50) | EC50 (HBV DNA; HepG2. 2. 15 cell culture supernatant, collected on the eighth day, real time-qPCR, read-out: HBV-DNA experimental results EC50)
COc1cc2c(cc1Cl)-c1cc(=O)c(C(=O)O)cn1C(c1ccccc1)O2 (stereo not drawn) [Embodiment 1] | 27.6 nM | 11.8 nM | – | – | –
CC(C)(CO)COc1cc2c(cc1Cl)-c1cc(=O)c(C(=O)O)cn1C(c1ccccc1)O2 (stereo not drawn) [Embodiment 2] | 55.8 nM | 34.5 nM | – | – | –
COCCOc1cc2c(cc1Cl)-c1cc(=O)c(C(=O)O)cn1C(c1ccccc1)O2 (stereo not drawn) [Embodiment 3] | 47.6 nM | 27.6 nM | – | – | –
O=C(O)c1cn2c(cc1=O)-c1cc(Cl)c(OCC(F)F)cc1OC2c1ccccc1 (stereo not drawn) [Embodiment 4] | 31.9 nM | 15 nM | – | – | –
O=C(O)c1cn2c(cc1=O)-c1cc(Cl)c(OCCN3CCOCC3)cc1OC2c1ccccc1 (stereo not drawn) [Embodiment 5] | 50 nM | 15.1 nM | – | – | –
O=C(O)c1cn2c(cc1=O)-c1cc(Cl)c(OCCCO)cc1OC2c1ccccc1 (stereo not drawn) [Embodiment 6] | 20.3 nM | 6.04 nM | – | – | –
O=C(O)c1cn2c(cc1=O)-c1cc(Cl)c(OCCO)cc1OC2c1ccccc1 (stereo not drawn) [Embodiment 7] | 299 nM | 211 nM | – | – | –
O=C(O)c1cn2c(cc1=O)-c1cc(Cl)c(OCCCCCO)cc1OC2c1ccccc1 (stereo not drawn) [Embodiment 8] | 66.2 nM | 20.8 nM | – | – | –
C#CCOc1cc2c(cc1Cl)-c1cc(=O)c(C(=O)O)cn1C(c1ccccc1)O2 (stereo not drawn) [Embodiment 9] | 138 nM | 74.1 nM | – | – | –
O=C(O)c1cn2c(cc1=O)-c1cc(Cl)c(OCC(F)(F)CO)cc1OC2c1ccccc1 (stereo not drawn) [Embodiment 10] | 102 nM | 51 nM | – | – | –
CS(=O)(=O)CCCOc1cc2c(cc1Cl)-c1cc(=O)c(C(=O)O)cn1C(c1ccccc1)O2 (stereo not drawn) [Embodiment 11] | 73.9 nM | 40.8 nM | – | – | –
O=C(O)c1cn2c(cc1=O)-c1cc(Cl)c(OCCCN3CCCC3=O)cc1OC2c1ccccc1 (stereo not drawn) [Embodiment 12] | 213 nM | 78.1 nM | – | – | –
COCCCOc1cc2c(cc1Cl)-c1cc(=O)c(C(=O)O)cn1C(c1nccs1)O2 (stereo not drawn) [Embodiment 14] | 6.88 nM | – | 6.88 nM | – | –
COCCCOc1cc2c(cc1Cl)-c1cc(=O)c(C(=O)O)cn1C(c1ccccc1Cl)O2 (stereo not drawn) [Embodiment 15] | – | 8.2 nM | – | – | –
COCCCOc1cc2c(cc1Cl)-c1cc(=O)c(C(=O)O)cn1C(c1cccc(Cl)c1)O2 (stereo not drawn) [Embodiment 16] | 45.3 nM | – | 45.3 nM | – | –
COCCCOc1cc2c(cc1Cl)-c1cc(=O)c(C(=O)O)cn1C(c1ccc(Cl)cc1)O2 (stereo not drawn) [Embodiment 17] | 254 nM | – | 254 nM | – | –
COCCCOc1cc2c(cc1Cl)-c1cc(=O)c(C(=O)O)cn1C(c1ccc(F)cc1)O2 (stereo not drawn) [Embodiment 18] | 73.7 nM | 40.8 nM | – | – | –
COCCCOc1cc2c(cc1Cl)-c1cc(=O)c(C(=O)O)cn1C(c1ccccc1F)O2 (stereo not drawn) [Embodiment 19] | 20.9 nM | 3.88 nM | – | – | –
COCCCOc1cc2c(cc1Cl)-c1cc(=O)c(C(=O)O)cn1C(c1cccc(F)c1)O2 (stereo not drawn) [Embodiment 20] | 22.5 nM | 11 nM | – | – | –
COCCCOc1cc2c(cc1Cl)-c1cc(=O)c(C(=O)O)cn1C(c1ccccc1C)O2 (stereo not drawn) [Embodiment 21] | 16.3 nM | 7.12 nM | – | – | –
COCCCOc1cc2c(cc1Cl)-c1cc(=O)c(C(=O)O)cn1C(c1cccc(C)c1)O2 (stereo not drawn) [Embodiment 22] | 38.2 nM | 20.6 nM | – | – | –

Structure (SMILES) | EC50 [1, 2] | EC50 (HBV DNA; [3]) | EC50 (HBV DNA; [4]) | EC50 ([1]; HepG2. 2. 15 cell culture supernatant, collected on the eighth day, ELISA, read-out: HBsAg experimental results EC50) | EC50 (HBV DNA; HepG2. 2. 15 cell culture supernatant, collected on the eighth day, real time-qPCR, read-out: HBV-DNA experimental results EC50)
COCCCOc1cc2c(cc1Cl)-c1cc(=O)c(C(=O)O)cn1C(c1ccc(C)cc1)O2 (stereo not drawn) [Embodiment 23] | 127 nM | 85.9 nM | – | – | –
COCCCOc1cc2c(cc1Cl)-c1cc(=O)c(C(=O)O)cn1C(c1cc(F)cc(OC)c1)O2 (stereo not drawn) [Embodiment 24] | 35.5 nM | 59.3 nM | – | – | –
COCCCOc1cc2c(cc1Cl)-c1cc(=O)c(C(=O)O)cn1C(c1cc(F)ccc1OC)O2 (stereo not drawn) [Embodiment 25] | 35.9 nM | 18.7 nM | – | – | –
COCCCOc1cc2c(cc1Cl)-c1cc(=O)c(C(=O)O)cn1C(c1cc(OC)ccc1F)O2 (stereo not drawn) [Embodiment 26] | 101 nM | 152 nM | – | – | –
COCCCOc1cc2c(cc1Cl)-c1cc(=O)c(C(=O)O)cn1C(c1c(F)cccc1Cl)O2 (stereo not drawn) [Embodiment 27] | 39.1 nM | 23.6 nM | – | – | –
COCCCOc1cc2c(cc1Cl)-c1cc(=O)c(C(=O)O)cn1C(c1nc(C)c(C)s1)O2 (stereo not drawn) [Embodiment 28] | 152 nM | 278 nM | – | – | –
COCCCOc1cc2c(cc1Cl)-c1cc(=O)c(C(=O)O)cn1C(c1c(F)cccc1F)O2 (stereo not drawn) [Embodiment 29] | 12.2 nM | 4.11 nM | – | – | –
COCCCOc1cc2c(cc1Cl)-c1cc(=O)c(C(=O)O)cn1C(c1cc(F)cc(F)c1)O2 (stereo not drawn) [Embodiment 30] | 28.2 nM | 18.5 nM | – | – | –
COCCCOc1cc2c(cc1Cl)-c1cc(=O)c(C(=O)O)cn1C(c1cccc(F)c1F)O2 (stereo not drawn) [Embodiment 31] | 203 nM | 90.5 nM | – | – | –
COCCCOc1cc2c(cc1Cl)-c1cc(=O)c(C(=O)O)cn1C(c1cc(F)ccc1F)O2 (stereo not drawn) [Embodiment 32] | 71 nM | 35.2 nM | – | – | –
COCCCOc1cc2c(cc1Cl)-c1cc(=O)c(C(=O)O)cn1C(c1ccc(F)cc1F)O2 (stereo not drawn) [Embodiment 33] | 10.2 nM | 12.6 nM | – | – | –
COCCCOc1cc2c(cc1Cl)-c1cc(=O)c(C(=O)O)cn1C(c1ccc(OC)cc1F)O2 (stereo not drawn) [Embodiment 34] | 29.6 nM | 21.3 nM | – | – | –
COCCCOc1cc2c(cc1Cl)-c1cc(=O)c(C(=O)O)cn1C(c1cnsc1C)O2 (stereo not drawn) [Embodiment 35] | – | – | – | 11 nM | 25.1 nM
COCCCOc1cc2c(cc1Cl)-c1cc(=O)c(C(=O)O)cn1C(c1cnsc1)O2 (stereo not drawn) [Embodiment 37] | 26.6 nM | 10.6 nM | – | – | –
COCCCOc1cc2c(cc1Cl)-c1cc(=O)c(C(=O)O)cn1C(c1cncs1)O2 (stereo not drawn) [Embodiment 38] | 12.3 nM | 20.4 nM | – | – | –
COCCCOc1cc2c(cc1Cl)-c1cc(=O)c(C(=O)O)cn1C(c1ncc(C)s1)O2 (stereo not drawn) [Embodiment 41] | 58 nM | 17.8 nM | – | – | –
Cc1csc(C2Oc3cc(OCC4CC4)c(Cl)cc3-c3cc(=O)c(C(=O)O)cn32)n1 (stereo not drawn) [Embodiment 42] | 7.88 nM | 2.19 nM | – | – | –
COCCCOc1cc2c(cc1OC)-c1cc(=O)c(C(=O)O)cn1C(c1cscn1)O2 (stereo not drawn) [Embodiment 43] | 15.4 nM | 19.4 nM | – | – | –
O=C(O)c1cn2c(cc1=O)-c1cc(Cl)c(OCC3CC3)cc1OC2c1ncc(Cl)s1 (stereo not drawn) [Embodiment 44] | 212 nM | 129 nM | – | – | –
COCCCOc1cc2c(cc1Cl)-c1cc(=O)c(C(=O)O)cn1C(c1csc(Cl)c1Cl)O2 (stereo not drawn) [Embodiment 48] | 103 nM | > 1000 nM | – | – | –

— US11008331B2, “Hepatitis B virus surface antigen inhibitor” (FUJIAN COSUNTER PHARMACEUTICAL CO., LTD., priority 2017, dated 2021)
